Results: patent US20110086759A1, “CHEMICAL COMPOUNDS” (SYNGENTA CROP PROTECTION, INC., priority 2007, published 2011)

Columns and labels:
Format in all cases: in vivo
[1] = system: Ipomea hederaceae (IPOHE); assay: Post-emergence biological efficacy, glasshouse pot test; conditions: Ipomoea hederacea, 312 h; post-emergence, 1,000 g/ha, evaluated after 13 days (100=total damage; 0=no damage); read-out: Percentage damage caused to weed species, IPOHE
How it was run: (§1)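 Scored 13 days after spraying on a 0 (no damage) to 100 (total damage) scale. Treatment was a post-emergence spray at 1000 or 250 g/ha, from acetone/water 50:50 plus 0.5% Tween 20, onto 8-day-old plants in soil pots. Growth at 24/16° C, 14 h photoperiod, 65% humidity, watered twice daily.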

Solanum nigrum (SOLNI) [2] = assay: as above; conditions: 312 h, post-emergence, 1,000 g/ha, evaluated after 13 days (100=total damage; 0=no damage), read-out: Percentage damage caused to weed species, SOLNI
How it was run: as §1

[3] = system: Echinochloa crus-galli (ECHCG); assay: as above; conditions: 312 h, post-emergence, 1,000 g/ha, evaluated after 13 days (100=total damage; 0=no damage), read-out: Percentage damage caused to weed species, ECHCG
How it was run: as §1

[4] = system: Alopecurus myosuroides (ALOMY); assay: as above; conditions: 312 h, post-emergence, 1,000 g/ha, evaluated after 13 days (100=total damage; 0=no damage), read-out: Percentage damage caused to weed species, ALOMY
How it was run: as §1

[5] = system: Amaranthus retoflexus (AMARE); assay: as above; conditions: Amaranthus retroflexus, 312 h; post-emergence, 1,000 g/ha, evaluated after 13 days (100=total damage; 0=no damage); read-out: Percentage damage caused to weed species, AMARE
How it was run: as §1

Setaria faberi (SETFA) [6] = assay: as above; conditions: 312 h, post-emergence, 1,000 g/ha, evaluated after 13 days (100=total damage; 0=no damage), read-out: Percentage damage caused to weed species, SETFA
How it was run: as §1

[7] = system: Ipomea hederaceae (IPOHE); assay: Pre-emergence biological efficacy, glasshouse pot test; conditions: Ipomoea hederacea, 312 h; pre-emergence, 1,000 g/ha, evaluated after 13 days (100=total damage; 0=no damage); read-out: Percentage damage IPOHE
How it was run: (§2)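 Sow seeds in pots of standard soil; after one day in the glasshouse, spray test compound (1000 or 250 g/ha) in aqueous acetone/water with 0.5% Tween 20. Grow 13 days at 24/16 °C day/night, then score damage from 0 to 100.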

Solanum nigrum (SOLNI) [8] = assay: as above; conditions: 312 h, pre-emergence, 1,000 g/ha, evaluated after 13 days (100=total damage; 0=no damage), read-out: Percentage damage SOLNI
How it was run: as §2

[9] = system: Echinochloa crus-galli (ECHCG); assay: as above; conditions: 312 h, pre-emergence, 1,000 g/ha, evaluated after 13 days (100=total damage; 0=no damage), read-out: Percentage damage ECHCG
How it was run: as §2

[10] = system: Alopecurus myosuroides (ALOMY); assay: as above; conditions: 312 h, pre-emergence, 1,000 g/ha, evaluated after 13 days (100=total damage; 0=no damage), read-out: Percentage damage ALOMY
How it was run: as §2

[11] = system: Amaranthus retoflexus (AMARE); assay: as above; conditions: Amaranthus retroflexus, 312 h; pre-emergence, 1,000 g/ha, evaluated after 13 days (100=total damage; 0=no damage); read-out: Percentage damage AMARE
How it was run: as §2

Setaria faberi (SETFA) [12] = assay: as above; conditions: 312 h, pre-emergence, 1,000 g/ha, evaluated after 13 days (100=total damage; 0=no damage), read-out: Percentage damage SETFA
How it was run: as §2

| Structure (SMILES) | pest or weed control at 1000 g/ha [1] | pest or weed control at 1000 g/ha (Solanum nigrum (SOLNI) [2]) | pest or weed control at 1000 g/ha [3] | pest or weed control at 1000 g/ha [4] | pest or weed control at 1000 g/ha [5] | pest or weed control at 1000 g/ha (Setaria faberi (SETFA) [6]) | pest or weed control at 1000 g/ha [7] | pest or weed control at 1000 g/ha (Solanum nigrum (SOLNI) [8]) | pest or weed control at 1000 g/ha [9] | pest or weed control at 1000 g/ha [10] | pest or weed control at 1000 g/ha [11] | pest or weed control at 1000 g/ha (Setaria faberi (SETFA) [12]) |
| --- | --- | --- | --- | --- | --- | --- | --- | --- | --- | --- | --- | --- |
| COC(=O)c1nc(C2CC2)nc(Nc2ccccc2)c1Cl [Compound 4-39, 5-Chloro-2-cyclopropyl-6-methoxycarbonyl-4-phenylamino-pyrimidine] | 70% | 80% | 70% | 50% | 100% | 60% | 80% | 50% | 20% | 0% | 60% | 0% |
| COC(=O)c1nc(C2CC2)nc(Nc2ccc(Cl)c(Cl)c2)c1Cl [Compound 4-42, 5-Chloro-2-cyclopropyl-4-(3,4-dichlorophenyl-amino)-6-methoxycarbonyl-pyrimidine] | 60% | 50% | 10% | 10% | 50% | 0% | 0% | 0% | 20% | 10% | 30% | 10% |
| COC(=O)c1nc(C2CC2)nc(NCC2CC2)c1Cl [Compound 4-43, 5-Chloro-2-cyclopropyl-4-cyclopropylmethyl-amino-6-methoxycarbonyl-pyrimidine] | 100% | 90% | 70% | 60% | 100% | 100% | 80% | 90% | 70% | 70% | 90% | 70% |
| COC(=O)c1nc(C2CC2)nc(NCC2CCCCC2)c1Cl [Compound 4-49, 5-Chloro-4-cyclohexylmethyl-amino-2-cyclo-propyl-6-methoxy-carbonylpyrimidine] | 70% | 70% | 40% | 10% | 100% | 40% | 40% | 30% | 0% | 0% | 10% | 0% |
| COC(=O)c1nc(C2CC2)nc(NCC2(O)CCCCC2)c1Cl [Compound 4-50, 5-Chloro-2-cyclopropyl-4-[(1-hydroxycyclohex-1-yl)methylamino]-6-methoxycarbonyl-pyrimidine] | 70% | 80% | 10% | 10% | 100% | 50% | 100% | 100% | 10% | 10% | 100% | 10% |
| COC(=O)c1nc(C2CC2)nc(NCC2CCC(C#N)CC2)c1Cl (stereo not drawn) [Compound 4-51, 5-Chloro-4-[(4-cyanocyclohexyl)methylamino]-2-cyclopropyl-6-methoxycarbonyl-pyrimidine] | 60% | 50% | 20% | 10% | 50% | 50% | 50% | 10% | 0% | 0% | 30% | 0% |
